The results in this text go back to US9044487B2, “Hematopoietic neoplasm chemotherapy” (Eli Lilly and Company, priority 2009, dated 2015).

In assay [1] the test system is MV4;11 leukemia xenografts. The experiment in a line: Antitumor efficacy in MV4;11 leukemia xenografts. The conditions noted are these: vehicle control 233 ± 23.2. It counts as in vivo, female CD-1 nu/nu strain mice. The procedure: Cultured cells (ATCC) are implanted subcutaneously in the rear flank of female CD-1 nu/nu strain mice which have been acclimated for one week in the animal facility after receipt from the vendor. […] The tumors are measured 2 times per week by electronic calipers to plot growth curves. Animals are also monitored for fluctuations in body weight and survival.

The test system of assay [2] is MV4;11. The experiment in a line: Caspase 3 activity (Apo-ONE Homogeneous Caspase-3/7 Assay). The conditions noted are these: relative to untreated controls. It counts as cell-based, human. An excerpt: (§1) Apoptosis or programmed cell death is characterized by a set of biochemical reactions, one of which is the induction of caspases. Activated caspases are proteases that participate in a cascade of cleavage events that disable key enzymes responsible for cell homeostasis and repair. Caspases 3 and 7 play key effector roles in apoptosis and can be detected and measured by a fluorescent biochemical assay. The increase of Caspase-3/7 activity in cells is directly correlated to apoptotic activity. (D. W. Nicholson, et al., Nature, 376, 37-43 (1995)) The Promega Apo-ONE Homogeneous Caspase-3/7 Assay Kit is used (Catalog #G7791). The assay buffer consists of 30 mM HEPES (N-(2-hydroxyethyl)piperazine-N′-(2-ethanesulfonic acid) pH 7.4, 150 mM NaCl, 50 mM KCl, 10 mM MgCl2, 0.4 mM EGTA (ethylene glycol tetraacetic acid), 0.5% Nonidet P40 (octylphenolpoly(ethyleneglycol ether)), 0.1% CHAPS (3-[(3-Cholamidopropyl)dimethylammonio]-1-propanesulfonate hydrate and 10% sucrose, which lyses/permeabilizes cultured cells and a caspase 3/7 substrate, Z-DEVD (Z-Asp(OMe)-Glu(OMe)-Val-Asp(OMe)), coupled to a profluorescent rhodamine 110. When the buffer-substrate mixture is added to a test sample, the cleavage and subsequent removal of the DEVD peptides by caspase 3/7 activity results in intense fluorescence of the rhodamine 110 leaving group, which is detected by excitation at 490 nm. The amount of fluorescent product is proportional to the amount of caspase 3/7 cleavage activity in the sample.
(§2) To measure the apoptotic effect of test compounds, tumor cells are plated at 1×10^4 cells per well in 96 well plates and incubated overnight at 37° C., with 5% CO2. Tumor cells are treated with test compound at desired concentrations in triplicate, including untreated/negative control wells. The assay plates are re-incubated for 48 hrs. At the end of the incubation period, a mixture of the assay buffer and substrate is added to each sample well. The fluorescence in each well is measured at an excitation wavelength of 480+/−20 nm and an emission wavelength of 530+/−25 nm. The % increase of caspase activity in treated cells is calculated relative to untreated controls.
(§3) MV4;11 is a human acute myeloid leukemia line characterized by the presence of a fusion transcript comprised of the MLL and AF4 genes and by the presence of an internal tandem duplication in the juxtamembrane region of the FLT-3 gene. RS4;11 is a human acute lymphoid leukemia cell line characterized by the presence of a fusion transcript comprised of the MLL and AF4 genes. REH is a human acute lymphoid leukemia (non-T; non-B) cell line characterized by the presence of a fusion transcript comprised of the TEL and AML1 genes. Kasumi 1 is a human acute myeloid leukemia line characterized by the presence of a fusion transcript comprised of the AML1 and ETO genes. K562 is a human chronic myelogenous leukemia cell line characterized by the presence of a fusion transcript comprised of the Bcr and Abl genes. HEL 92.1.7 is a human erythroleukemia cell line characterized by the presence of a V617F mutation in the JAK2 gene. Jurkatt is a human acute T-cell leukemia cell line. Each of the cell lines are obtained from the American Type Culture Collection (ATCC). In the following tables the term “Compound 1” or “Cmpd 1” means 7-(2,5-dihydro-4-imidazo[1,2-a]pyridine-3-yl-2,5-dioxo-1H-pyrrol-3-yl)-9-fluoro-1,2,3,4-tetrahydro-2-(1-piperidinyl-carbonyl)-pyrrolo[3,2,1-jk][1,4]benzodiazepine. The GSK-3 inhibitor [(3-(2,4-dichlorophenyl)-4-(1-methyl-1H-indol-3-yl)-1H-pyrrole-2,5-dione (SB216763), Sigma-Aldrich is used as a positive comparator control in some experiments. The compound GSK-3 Inhibitor IX, (2′Z,3′E)-6-bromoindirubin-3′-oxime (“GSK3-IX”) Calbiochem, is used as a positive control in some experiments. Both SB216763 and GSK3-IX are mentioned in the Wang et al., Nature, 455, 1205-1210 (2008) paper as evidencing positive results. […]

The test system of assay [3] is REH. The description is as above. The conditions noted are these: relative to untreated controls. It counts as cell-based, human.
Source text: as §1, §2, §3

For a further assay, the system named is Kasumi 1. Described as above. It counts as cell-based, human. The conditions noted are these: relative to untreated controls.
Source text: as §1, §2, §3

Assay [4] concerns K562. The description is as above. It counts as cell-based, human. The conditions noted are these: relative to untreated controls.
Source text: as §1, §2, §3

Assay [5] has as its system Jurkat. Described as above. It counts as cell-based, human. The conditions noted are these: relative to untreated controls.
Source text: as §1, §2, §3

The test system of assay [6] is HEL 92.1.7. The assay is described as above. The format is cell-based, human. The conditions noted are these: relative to untreated controls.
Source text: as §1, §2, §3

Assay [7] deals with RS4;11. The description is as above. The format is cell-based, human. The settings on record: relative to untreated controls.
Source text: as §1, §2, §3

The test system of assay [8] is MV4;11. The assay can be described thus: Reduction in cell viability (CellTiter-Glo Luminescent Cell Viability Assay). The format is cell-based, human. The conditions noted are these: 48 hrs, read-out: Reduction in cell viability after treatment - EC50 (mean of triplicates). The procedure: (§4) Cell viability is determined by the CellTiter-Glo® Luminescent Cell Viability Assay (Promega, Catalog #G7570) which is a method of estimating viable cell number based on quantitation of ATP in metabolically active cells. After cells are lysed, the mono-oxygenation of the substrate luciferin is catalyzed by the enzyme luciferase in the presence of Mg2+, ATP and molecular oxygen, resulting in the generation of a luminescent signal that is proportional to the number of viable cells in the assay wells.
(§5) To measure the viability of cells after treatment with compounds, tumor cells are plated at 2×10^4 per well in 96 well plates and incubated overnight at 37° C., with 5% CO2. Tumor cells are treated with test compound at desired concentrations in triplicate, including untreated/negative control cells. The assay plates are re-incubated for 48 hrs. At the end of the incubation period, a mixture of lysis assay buffer and substrate is added to each sample well. The luminescence in each well is measured using a microtiter plate luminometer.
(§6) MV4;11 is a human acute myeloid leukemia line characterized by the presence of a fusion transcript comprised of the MLL and AF4 genes and by the presence of an internal tandem duplication in the juxtamembrane region of the FLT-3 gene. RS4;11 is a human acute lymphoid leukemia cell line characterized by the presence of a fusion transcript comprised of the MLL and AF4 genes. REH is a human acute lymphoid leukemia (non-T; non-B) cell line characterized by the presence of a fusion transcript comprised of the TEL and AML1 genes. Kasumi 1 is a human acute myeloid leukemia line characterized by the presence of a fusion transcript comprised of the AML1 and ETO genes. K562 is a human chronic myelogenous leukemia cell line characterized by the presence of a fusion transcript comprised of the Bcr and Abl genes. […] Jurkatt is a human acute T-cell leukemia cell line. Each of the cell lines are obtained from the American Type Culture Collection (ATCC).
(In general: In ATP-based viability assays light output follows the ATP content of the culture.)

The test system of assay [9] is REH. The assay is described as above. The format is cell-based, human. The conditions noted are these: 48 hrs, read-out: Reduction in cell viability after treatment - EC50 (mean of triplicates). The procedure:
as §4, §5, §6

Another assay deals with Kasumi. Described as above. The format is cell-based, human. The settings on record: 48 hrs, read-out: Reduction in cell viability after treatment - EC50 (mean of triplicates). The protocol: as §4, §5, §6
Assay [10] relates to K562. The description is as above. It counts as cell-based, human. The conditions noted are these: 48 hrs, read-out: Reduction in cell viability after treatment - EC50 (mean of triplicates). The procedure: as §4, §5, §6
The test system of assay [11] is Jurkat. The assay is described as above. The format is cell-based, human. The conditions noted are these: 48 hrs, read-out: Reduction in cell viability after treatment - EC50 (mean of triplicates). The procedure:
as §4, §5, §6

The subject of assay [12] is HEL 92.1.7. The description is as above. It counts as cell-based, human. The settings on record: 48 hrs, read-out: Reduction in cell viability after treatment - EC50 (mean of triplicates). The procedure:
as §4, §5, §6

In assay [13] the test system is RS4;11. Described as above. It counts as cell-based, human. The conditions noted are these: 48 hrs, read-out: Reduction in cell viability after treatment - EC50 (mean of triplicates). The protocol: as §4, §5, §6

The structures appear in SMILES notation. pEC50: −log10 of the molar value. Like-named read-outs stand apart in the source and are kept apart here.

`Nc1ccn([C@@H]2O[C@H](CO)[C@@H](O)[C@@H]2O)c(=O)n1` [Arabinosylcytosine]: the “Tumor Volume at day 33 Mean ± Standard Error” value in assay [1] (30 mg/kg IP administered every day for 14 days) worked out at 129 ± 11.2 mm^3.

What is called pEC50 is the negative decadic logarithm of the EC50, by convention in mol/L. With `O=C1NC(=O)C(c2cnc3ccccn23)=C1c1cn2c3c(cc(F)cc13)CN(C(=O)N1CCCCC1)CC2` [Compound 1, 7-(2,5-dihydro-4-imidazo[1,2-a]pyridine-3-yl-2,5-dioxo-1H-pyrrol-3-yl)-9-fluoro-1,2,3,4-tetrahydro-2-(1-piperidinyl-carbonyl)-pyrrolo[3,2,1-jk][1,4]benzodiazepine], the “% Increase in Caspase 3 after treatment with Cmpd 1 (mean of triplicates)” value in the assay on MV4;11 [2] (0.010 μM Compound 1, 48 hrs) worked out at 188%; in the assay on REH [3] (0.0007 μM Compound 1, 48 hrs) it was 132%; with Kasumi 1 (0.370 μM Compound 1, 48 hrs) it was 133%; in the assay with K562 [4] (0.0007 μM Compound 1, 48 hrs), 1057%; in the assay with Jurkat [5] (0.370 μM Compound 1, 48 hrs) it was 140%; with HEL 92.1.7 [6] (0.120 μM Compound 1, 48 hrs) it was 284%. In the assay with RS4;11 [7] (0.009 μM Compound 1, 48 hrs), the “% Increase in Caspase 3 after treatment with Cmpd 1 (mean of triplicates)” value is on record as 111%. The pEC50 was 7.09 with MV4;11 [8] (Homo sapiens); 8.22 in the assay with REH [9] (Homo sapiens); 7.80 in the assay on Kasumi (Homo sapiens); 7.34 with K562 [10] (Homo sapiens); 7.34 with Jurkat [11] (Homo sapiens); 7.47 with HEL 92.1.7 [12] (Homo sapiens). In addition, in the assay on RS4;11 [13] (Homo sapiens), the negative-log EC50 (pEC50) was 8.30. The “Tumor Volume at day 33 Mean ± Standard Error” value in assay [1] (0.1 mg/kg IV administered twice a week, 6 cycles) is on record as 189 ± 22.3 mm^3; in [1] (1 mg/kg IV administered twice a week, 6 cycles) it was 154 ± 15 mm^3; in assay [1] (5 mg/kg IV administered once a week, three cycles) it was 167 ± 11.7 mm^3.

`O=C1Nc2cc(Br)ccc2/C1=C1/Nc2ccccc2/C1=N\O` [GSK3-IX, (2′Z,3′E)-6-bromoindirubin-3′-oxime]: the negative logarithm of the EC50 (pEC50) was 6.70 in the assay with MV4;11 [8]; 5.96 in the assay with REH [9]; 5.92 in the assay on Kasumi; < 5.48 in the assay with K562 [10]; < 5.48 in the assay with Jurkat [11]; < 5.48 with HEL 92.1.7 [12]. In addition, in the assay on RS4;11 [13], the negative logarithm of the EC50 (pEC50) was 6.52.

Turning to `Cn1cc(C2=C(c3ccc(Cl)cc3Cl)C(=O)NC2=O)c2ccccc21` [SB216763, 3-(2,4-dichlorophenyl)-4-(1-methyl-1H-indol-3-yl)-1H-pyrrole-2,5-dione], the “% Increase in Caspase 3 after treatment with SB216763 (mean of triplicates)” value in the assay on MV4;11 [2] (30 μM SB216763, 48 hrs) worked out at 83%; in the assay with REH [3] (20 μM SB216763, 48 hrs), 113%; in the assay with Kasumi 1 (10 μM SB216763, 48 hrs) it was 27%; with K562 [4] (20 μM SB216763, 48 hrs), 223%; in the assay on Jurkat [5] (10 μM SB216763, 48 hrs), 101%; in the assay with HEL 92.1.7 [6] (10 μM SB216763, 48 hrs), 250%. The “% Increase in Caspase 3 after treatment with SB216763 (mean of triplicates)” value in the assay with RS4;11 [7] (20 μM SB216763, 48 hrs) was 117%. Also, the negative logarithm of the EC50 (pEC50) with MV4;11 [8] (Homo sapiens) is 4.90; with REH [9] (Homo sapiens), 5.38; with Kasumi (Homo sapiens), 5.00; in the assay on K562 [10] (Homo sapiens), 4.70; in the assay with Jurkat [11] (Homo sapiens), < 5.00; in the assay on HEL 92.1.7 [12] (Homo sapiens), 4.95. Also, the negative logarithm of the EC50 (pEC50) in the assay on RS4;11 [13] (Homo sapiens) was 5.36.
